Source: PMC9865890, “N-Derivatives of (Z)-Methyl 3-(4-Oxo-2-thioxothiazolidin-5-ylidene)methyl)-1H-indole-2-carboxylates as Antimicrobial Agents—In Silico and In Vitro Evaluation” (Pharmaceuticals, 2023)
Values after ≈ are worked out from the molar mass of the structure shown. Where two headings read alike, the source gives them in different places.

What was measured:
[1] = system: Escherichia coli (ATCC 35210); assay: Antibacterial microdilution (MIC/MBC); assay type: cell-based; settings: Escherichia coli, ATCC35210, E. coli
In short: (§1)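 Ampicillin and streptomycin are the reference antibiotics for this panel. Minimum inhibitory and minimum bactericidal concentrations are both derived from one modified microdilution format.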

[2] = system: Bacillus cereus (clinical isolate); assay: Antibacterial microdilution (MIC/MBC); assay type: cell-based; settings: Bacillus cereus, B.c. (B. cereus); for MIC: read-out: MIC
In short: as §1

[3] = system: Enterobacter cloacae (clinical isolate); assay: Antibacterial microdilution (MIC/MBC); assay type: cell-based; settings: Enterobacter cloacae, En.cl (En. cloacae); for MIC: read-out: MIC
In short: as §1

[4] = system: M. flavus; assay: Antibacterial microdilution (MIC/MBC); assay type: cell-based; settings: Micrococcus flavus; M.f. (M. flavus)
In short: as §1

[5] = system: Staphylococcus aureus (ATCC 6538); assay: Antibacterial microdilution (MIC/MBC); assay type: cell-based; settings: Staphylococcus aureus, ATCC6538, S.a. (S. aureus); for MIC: read-out: MIC
In short: as §1

[6] = system: Listeria monocytogenes (NCTC 7973); assay: Antibacterial microdilution (MIC/MBC); assay type: cell-based; settings: L.m. (L. monocytogenes)
In short: as §1

[7] = system: P. aeruginosa; assay: Antibacterial microdilution (MIC/MBC); assay type: cell-based; settings: Pseudomonas aeruginosa, P.a. (P. aeruginosa); for MIC: read-out: MIC
In short: as §1

[8] = system: Salmonella typhimurium (ATCC 13311); assay: Antibacterial microdilution (MIC/MBC); assay type: cell-based; settings: Salmonella enterica, S.t. (S. typhimurium)
In short: as §1

[9] = system: Penicillium funiculosum (ATCC 36839); assay: Antifungal bioassay (MIC/MFC); assay type: cell-based; settings: Talaromyces funiculosus, ATCC36839; P.f. (P. funiculosum)
In short: (§2)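 Replicates: two per fungal strain.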

[10] = system: Aspergillus versicolor (ATCC 11730); assay: Antifungal bioassay (MIC/MFC); assay type: cell-based; settings: ATCC11730, A.v. (A. versicolor)
In short: as §2

[11] = system: P. ochrochloron; assay: Antifungal bioassay (MIC/MFC); assay type: cell-based; settings: Penicillium ochrochloron; for MFC: P.o. (P. ochrochloron); for MIC: P.o. (P. ochrochloron; text: P. ochramensis), read-out: MIC
In short: as §2

[12] = system: A. ochraceus; assay: Antifungal bioassay (MIC/MFC); assay type: cell-based; settings: Aspergillus ochraceus, A.o. (A. ochraceus); for MIC: read-out: MIC
In short: as §2

[13] = system: Trichoderma viride (IAM 5061); assay: Antifungal bioassay (MIC/MFC); assay type: cell-based; settings: T.v. (T. viride)
In short: as §2

[14] = system: Aspergillus niger (ATCC 6275); assay: Antifungal bioassay (MIC/MFC); assay type: cell-based; settings: ATCC6275, A.n. (A. niger)
In short: as §2

[15] = system: Aspergillus fumigatus (ATCC 1022); assay: Antifungal bioassay (MIC/MFC); assay type: cell-based; settings: ATCC1022, A.f. (A. fumigatus)
In short: as §2

[16] = system: Penicillium verrucosum var. cyclopium (food isolate); assay: Antifungal bioassay (MIC/MFC); assay type: cell-based
[17] = Listeria monocytogenes, NCTC7973
[18] = Listeria monocytogenes, NCTC7973, read-out: MIC
[19] = Trichoderma viride, IAM5061, read-out: MIC

SMILES	MBC [1]	MBC [2]	MIC [2]	MBC [3]	MIC [3]	MBC [4]	MIC [4]	MBC [5]	MIC [5]	MBC [6, 17]	MIC [6, 18]	MBC [7]	MIC [7]	MBC [8]	melting point	MFC [9]	MIC [9]	MFC [10]	MIC [10]	MFC [11]	also measured
COC(=O)c1[nH]c2ccc(F)cc2c1/C=C1\SC(=S)N(N2CCOCC2)C1=O [Compound 16, (Z)-methyl 5-fluoro-3-((3-morpholino-4-oxo-2-thioxothiazolidin-5-ylidene)methyl)-1H-indole-2-carboxylate]	60 ± 6 mg/L (≈ 142 µM)	30 ± 10 mg/L (≈ 71.2 µM)	15 ± 9 mg/L (≈ 35.6 µM)	60 ± 6 mg/L (≈ 142 µM)	45 ± 3 mg/L (≈ 107 µM)	60 ± 6 mg/L (≈ 142 µM)	45 ± 3 mg/L (≈ 107 µM)	30 ± 10 mg/L (≈ 71.2 µM)	22 ± 5 mg/L (≈ 52.2 µM)	60 ± 6 mg/L (≈ 142 µM)	45 ± 3 mg/L (≈ 107 µM)	60 ± 6 mg/L (≈ 142 µM)	30 ± 10 mg/L (≈ 71.2 µM)	60 ± 6 mg/L (≈ 142 µM)	273 to 274 °C	30 ± 10 mg/L (≈ 71.2 µM)	15 ± 3 mg/L (≈ 35.6 µM)	30 ± 10 mg/L (≈ 71.2 µM)	15 ± 3 mg/L (≈ 35.6 µM)	30 ± 10 mg/L (≈ 71.2 µM)	MIC ([1]; read-out: MIC): 30 ± 10 mg/L (≈ 71.2 µM); MIC ([8]; read-out: MIC): 45 ± 3 mg/L (≈ 107 µM); MIC [11]: 15 ± 3 mg/L (≈ 35.6 µM); MFC [12]: 30 ± 10 mg/L (≈ 71.2 µM); MIC [12]: 15 ± 3 mg/L (≈ 35.6 µM); MIC [13]: 8 ± 0.6 mg/L (≈ 19 µM); MFC ([13]; Trichoderma viride, IAM5061): 15 ± 3 mg/L (≈ 35.6 µM); MIC [13, 19]: 8 mg/L (≈ 19 µM); MFC [14]: 30 ± 10 mg/L (≈ 71.2 µM); MIC [14]: 15 ± 3 mg/L (≈ 35.6 µM); MFC [15]: 30 ± 10 mg/L (≈ 71.2 µM); MIC [15]: 15 ± 3 mg/L (≈ 35.6 µM); MFC [16]: 30 ± 10 mg/L (≈ 71.2 µM); MIC [16]: 15 ± 3 mg/L (≈ 35.6 µM)
COC(=O)c1[nH]c2ccccc2c1/C=C1\SC(=S)N(C(C(=O)O)C(C)C)C1=O (stereo not shown) [Compound 12, (Z)-2-(5-((2-(methoxycarbonyl)-1H-indol-3-yl)methylene)-4-oxo-2-thioxothiazolidin-3-yl)-3-methylbutanoic acid]	30 ± 10 mg/L (≈ 71.7 µM)	60 ± 6 mg/L (≈ 143 µM)	30 ± 10 mg/L (≈ 71.7 µM)	60 ± 6 mg/L (≈ 143 µM)	15 mg/L (≈ 35.8 µM)	60 ± 6 mg/L (≈ 143 µM)	30 ± 10 mg/L (≈ 71.7 µM)	60 ± 6 mg/L (≈ 143 µM)	30 ± 10 mg/L (≈ 71.7 µM)	30 ± 10 mg/L (≈ 71.7 µM)	15 mg/L (≈ 35.8 µM)	30 ± 10 mg/L (≈ 71.7 µM)	15 ± 9 mg/L (≈ 35.8 µM)	8 ± 9 mg/L (≈ 19.1 µM)	256 to 258 °C	30 ± 10 mg/L (≈ 71.7 µM)	15 ± 3 mg/L (≈ 35.8 µM)	15 ± 3 mg/L (≈ 35.8 µM)	8 ± 0.6 mg/L (≈ 19.1 µM)	30 ± 10 mg/L (≈ 71.7 µM)	MIC [6]: 15 ± 1 mg/L (≈ 35.8 µM); MIC [11]: 15 ± 3 mg/L (≈ 35.8 µM); MFC [12]: 15 ± 3 mg/L (≈ 35.8 µM); MIC [12]: 8 ± 0.6 mg/L (≈ 19.1 µM); MIC [13]: 8 ± 0.6 mg/L (≈ 19.1 µM); MFC ([13]; Trichoderma viride, IAM5061): 15 ± 3 mg/L (≈ 35.8 µM); MIC [13, 19]: 8 mg/L (≈ 19.1 µM); MFC [14]: 30 ± 10 mg/L (≈ 71.7 µM); MIC [14]: 22 ± 5 mg/L (≈ 52.6 µM); MFC [15]: 120 ± 40 mg/L (≈ 287 µM); MIC [15]: 60 ± 6 mg/L (≈ 143 µM); MFC [16]: 60 ± 6 mg/L (≈ 143 µM); MIC [16]: 30 ± 10 mg/L (≈ 71.7 µM)
